Measured values as given in paper PMC8658016, “Identification of New Compounds with Anticonvulsant and Antinociceptive Properties in a Group of 3-substituted (2,5-dioxo-pyrrolidin-1-yl)(phenyl)-Acetamides” (International Journal of Molecular Sciences, 2021).

Key:
[1] = test system: mice; experiment: Maximal electroshock seizure (MES) test; assay type: in vivo, mouse; conditions: mice i.p.
[2] = test system: mice; experiment: 6 Hz (44 mA) seizure test, model of drug-resistant epilepsy; assay type: in vivo; conditions: Mus musculus, ip; mice i.p.; 95% confidence interval in parentheses
[3] = molecular target: Cav1.2 (h) calcium ion channel (Homo sapiens, UniProt Q13936); experiment: Cav1.2 calcium ion channel cell based antagonist calcium flux assay; conditions: HEK293, read-out: % Inhibition of Control Agonist Response, Cav1.2 (h) calcium ion channel cell based antagonist calcium flux assay
Chain of Cav1.2 (h) calcium ion channel (Q13936 whole entry): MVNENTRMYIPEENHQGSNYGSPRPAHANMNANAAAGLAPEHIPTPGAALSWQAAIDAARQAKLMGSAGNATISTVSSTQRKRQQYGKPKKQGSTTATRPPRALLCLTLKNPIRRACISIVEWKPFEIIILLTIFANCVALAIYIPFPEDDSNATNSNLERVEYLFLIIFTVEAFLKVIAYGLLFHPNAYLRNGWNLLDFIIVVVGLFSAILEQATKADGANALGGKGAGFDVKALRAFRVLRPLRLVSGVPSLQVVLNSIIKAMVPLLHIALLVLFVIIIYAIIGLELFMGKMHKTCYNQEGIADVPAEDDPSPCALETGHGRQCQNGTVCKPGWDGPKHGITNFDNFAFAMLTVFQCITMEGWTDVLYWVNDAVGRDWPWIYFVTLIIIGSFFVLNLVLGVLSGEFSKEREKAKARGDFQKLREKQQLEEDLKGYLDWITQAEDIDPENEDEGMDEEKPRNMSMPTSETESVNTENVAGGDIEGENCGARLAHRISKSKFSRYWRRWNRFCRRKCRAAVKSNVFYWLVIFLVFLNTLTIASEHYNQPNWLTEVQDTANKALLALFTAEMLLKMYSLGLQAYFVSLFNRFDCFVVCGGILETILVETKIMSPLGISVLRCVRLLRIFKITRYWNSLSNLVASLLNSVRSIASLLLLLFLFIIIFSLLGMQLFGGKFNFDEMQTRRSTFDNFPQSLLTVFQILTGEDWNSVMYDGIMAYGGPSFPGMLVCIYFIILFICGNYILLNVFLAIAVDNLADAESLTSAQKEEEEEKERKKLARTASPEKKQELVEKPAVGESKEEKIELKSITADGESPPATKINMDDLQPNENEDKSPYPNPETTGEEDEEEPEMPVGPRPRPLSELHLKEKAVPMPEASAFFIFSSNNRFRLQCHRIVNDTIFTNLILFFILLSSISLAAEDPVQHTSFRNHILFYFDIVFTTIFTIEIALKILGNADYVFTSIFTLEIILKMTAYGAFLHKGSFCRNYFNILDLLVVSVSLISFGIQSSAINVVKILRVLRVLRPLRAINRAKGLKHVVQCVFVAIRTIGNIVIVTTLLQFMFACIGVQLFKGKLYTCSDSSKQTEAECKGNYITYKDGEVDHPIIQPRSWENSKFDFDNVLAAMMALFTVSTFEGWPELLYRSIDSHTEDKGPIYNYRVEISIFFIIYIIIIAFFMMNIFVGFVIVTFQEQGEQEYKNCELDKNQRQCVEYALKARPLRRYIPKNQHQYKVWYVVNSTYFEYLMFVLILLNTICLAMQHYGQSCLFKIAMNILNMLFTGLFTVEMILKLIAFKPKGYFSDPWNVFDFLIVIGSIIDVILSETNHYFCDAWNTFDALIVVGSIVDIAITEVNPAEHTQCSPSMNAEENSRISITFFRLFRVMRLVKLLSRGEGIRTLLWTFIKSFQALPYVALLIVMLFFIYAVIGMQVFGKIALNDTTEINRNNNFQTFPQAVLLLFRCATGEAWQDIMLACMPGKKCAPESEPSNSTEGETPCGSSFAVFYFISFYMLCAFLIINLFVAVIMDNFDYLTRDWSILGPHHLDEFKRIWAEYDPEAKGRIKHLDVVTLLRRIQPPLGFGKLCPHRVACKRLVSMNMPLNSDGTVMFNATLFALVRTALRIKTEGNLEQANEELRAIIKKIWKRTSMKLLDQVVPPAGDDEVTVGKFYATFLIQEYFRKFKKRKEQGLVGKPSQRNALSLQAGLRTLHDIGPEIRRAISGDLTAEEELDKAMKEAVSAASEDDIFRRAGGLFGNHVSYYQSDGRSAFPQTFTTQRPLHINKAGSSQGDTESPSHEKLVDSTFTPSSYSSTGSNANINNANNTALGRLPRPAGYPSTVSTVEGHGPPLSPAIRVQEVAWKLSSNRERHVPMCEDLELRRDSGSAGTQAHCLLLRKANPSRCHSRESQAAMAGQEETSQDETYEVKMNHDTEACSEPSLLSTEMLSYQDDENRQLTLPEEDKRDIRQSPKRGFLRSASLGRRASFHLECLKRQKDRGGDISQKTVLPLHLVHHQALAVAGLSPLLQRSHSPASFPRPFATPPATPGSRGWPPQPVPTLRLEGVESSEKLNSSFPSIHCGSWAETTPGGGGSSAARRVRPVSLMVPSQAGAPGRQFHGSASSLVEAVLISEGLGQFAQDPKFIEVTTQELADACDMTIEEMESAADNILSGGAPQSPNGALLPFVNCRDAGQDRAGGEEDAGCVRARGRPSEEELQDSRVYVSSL
Chain of Cav1.2 (h) calcium ion channel (Q08289 whole entry partner): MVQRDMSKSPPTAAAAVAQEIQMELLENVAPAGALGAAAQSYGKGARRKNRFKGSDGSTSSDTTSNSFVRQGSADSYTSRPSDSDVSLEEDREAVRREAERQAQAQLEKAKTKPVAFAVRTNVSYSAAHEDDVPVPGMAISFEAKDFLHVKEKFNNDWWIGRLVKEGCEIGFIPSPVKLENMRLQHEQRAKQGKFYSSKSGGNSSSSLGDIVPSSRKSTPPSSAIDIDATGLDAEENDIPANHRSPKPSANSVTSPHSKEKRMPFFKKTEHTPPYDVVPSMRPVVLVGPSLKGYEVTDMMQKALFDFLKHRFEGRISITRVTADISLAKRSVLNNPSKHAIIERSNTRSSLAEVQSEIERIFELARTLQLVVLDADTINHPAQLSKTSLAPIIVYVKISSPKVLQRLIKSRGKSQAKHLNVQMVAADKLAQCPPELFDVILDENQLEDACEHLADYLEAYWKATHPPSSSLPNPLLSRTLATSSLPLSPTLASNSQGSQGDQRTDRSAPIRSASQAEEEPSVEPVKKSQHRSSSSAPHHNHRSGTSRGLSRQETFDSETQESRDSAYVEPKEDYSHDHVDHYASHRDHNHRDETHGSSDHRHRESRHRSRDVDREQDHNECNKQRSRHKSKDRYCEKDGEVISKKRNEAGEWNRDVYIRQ
Chain of Cav1.2 (h) calcium ion channel (P54289 25-956 partner limits assumed): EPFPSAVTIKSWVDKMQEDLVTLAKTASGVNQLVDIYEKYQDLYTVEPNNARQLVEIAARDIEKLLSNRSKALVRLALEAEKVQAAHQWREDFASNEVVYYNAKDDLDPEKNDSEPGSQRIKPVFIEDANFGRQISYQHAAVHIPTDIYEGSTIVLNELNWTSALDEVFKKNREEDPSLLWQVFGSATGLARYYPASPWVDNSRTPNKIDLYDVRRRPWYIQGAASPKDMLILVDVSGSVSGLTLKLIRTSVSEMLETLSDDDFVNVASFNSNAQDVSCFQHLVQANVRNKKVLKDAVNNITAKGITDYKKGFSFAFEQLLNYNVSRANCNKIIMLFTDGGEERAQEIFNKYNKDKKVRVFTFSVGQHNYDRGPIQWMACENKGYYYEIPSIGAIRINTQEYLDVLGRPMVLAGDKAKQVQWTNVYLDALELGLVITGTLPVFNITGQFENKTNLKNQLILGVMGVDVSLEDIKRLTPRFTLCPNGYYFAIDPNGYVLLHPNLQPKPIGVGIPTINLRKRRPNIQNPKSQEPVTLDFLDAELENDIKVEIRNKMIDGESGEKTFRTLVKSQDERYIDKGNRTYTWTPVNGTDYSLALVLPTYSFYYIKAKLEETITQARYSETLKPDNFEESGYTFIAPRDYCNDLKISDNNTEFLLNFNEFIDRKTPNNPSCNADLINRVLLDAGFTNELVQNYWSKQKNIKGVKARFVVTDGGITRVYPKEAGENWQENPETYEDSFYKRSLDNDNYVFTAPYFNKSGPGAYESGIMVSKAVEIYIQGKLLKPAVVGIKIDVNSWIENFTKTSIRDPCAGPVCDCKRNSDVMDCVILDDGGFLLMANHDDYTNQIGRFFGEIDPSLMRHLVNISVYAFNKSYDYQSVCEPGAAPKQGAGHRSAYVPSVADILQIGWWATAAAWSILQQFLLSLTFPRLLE
Chain of Cav1.2 (h) calcium ion channel (P54289 957-1103 partner limits assumed): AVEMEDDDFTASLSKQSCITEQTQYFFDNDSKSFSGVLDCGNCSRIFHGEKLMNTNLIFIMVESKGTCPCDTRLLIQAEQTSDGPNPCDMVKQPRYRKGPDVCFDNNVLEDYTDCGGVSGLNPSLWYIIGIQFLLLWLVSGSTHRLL

[4] = test system: mice; experiment: Capsaicin-induced neurogenic pain test; assay type: in vivo; conditions: Mus musculus, ip; mice i.p.
Description: We used the capsaicin-induced pain model to test the impact of compound 14 on neurogenic pain. In this model, the activation of TRPV1 receptors on C-type primary afferents led to the release of inflammatory neuropeptides, contributing to the local and spinal sensitization and excitability.
(§1) The experiments were conducted on adult male Albino Swiss mice (CD-1, 18–25 g) and male Wistar rats (Krf:(WI) WU), 180–250 g) as described previously. The minimum number of animals used needed to obtain definite and normally distributed results with the utilized test. Behavioral measures were scored by trained observers, which were blind to experimental conditions. The following devices were used in the experiments: Analgesy Meter (37215, Ugo Basile), Plantar Test Apparatus (EFV5, Commat Ltd., Turkey), Plethysmometer (Plethysmometer 7140, Ugo Basile), Electronic von Frey unit (BIOSEB, France). […]
Data were presented as means ± standard error of the mean (S.E.M). […] Statistically significant differences between groups were calculated using one-way analysis of variance (ANOVA) and the post hoc Dunnett’s multiple comparison test or two-way analysis of variance (ANOVA) and the post hoc Tukey’s comparison when appropriate. […]

[5] = Rectal temperature measurement; assay type: in vivo, mouse; conditions: 30 and 60 mg/kg i.p., 30 min
Description: Figure 4 Acute effect of compound 14 on rectal temperature in mice. Compound 14 was administered i.p. 30 min before the seizure test. Control animals received vehicle only. Each experimental group consisted of 10 animals. Each bar represents the mean difference between the pre-injection and post-injection values of rectal temperature in mice (ΔT) + S.E.M. Data were analyzed with one-way ANOVA test (GraphPad Prism 8.0.1).
In this study, we used adult male Swiss albino mice (Kołacz, Laboratory Animals Breeding, Warszawa, Poland) license no. 106/2019 (Local Ethical Committee in Lublin). […]
The timed ivPTZ test was employed to evaluate the acute effect of compound 14 on the seizure thresholds for (1) the first myoclonic twitch, (2) generalized clonic seizure with loss of righting reflex, and (3) forelimb tonus. […] The changes in temperature were recorded using an electronic thermometer (ThermoWorks, Alpine, UT, USA). […]
The probe remained in the rectum for several second, allowing for temperature stabilization. The temperature was recorded just before injection of compound 14 or vehicle and 30 min later. The difference between the pre- and post-injection temperature value was then calculated (Δ °C).

[6] = test system: rats; experiment: Carrageenan-induced paw edema; assay type: in vivo, rat; conditions: 80 mg/kg
Excerpt: (§2) To test the anti-inflammatory activity and the potential to attenuate inflammatory pain, we tested compound 14 in the model of carrageenan-induced aseptic inflammation. In this model, the subplantar injection of carrageenan induced an edema, mechanical, and thermal hyperalgesia. […] In our opinion, the most surprising and interesting was the long-lasting anti-edematous effect. It may result from the pharmacokinetic properties of compound 14, but also from its unique mechanism. Since inflammation is one of the critical components of neuropathy, the anti-inflammatory activity of compound 14 may be a valuable and distinctive property from classical ASDs used to treat neuropathic pain [33]. […] The pain threshold reached 87.3%, 90.9%, and 89.7% of its initial value 3, 6, and 24 h after carrageenan injection, respectively. […] The initial latency for compound 14-treated animals was 8.95 ± 0.4 s. The administration of compound 14 changed the values to 127.0%, 102.0%, 79.8%, 83.8%, and 164.4% of the initial value 1, 2, 3, 6-, and 24-h following carrageenan injection, respectively.
(§3) The experiments were conducted on adult male Albino Swiss mice (CD-1, 18–25 g) and male Wistar rats (Krf:(WI) WU), 180–250 g) as described previously. The minimum number of animals used needed to obtain definite and normally distributed results with the utilized test. Behavioral measures were scored by trained observers, which were blind to experimental conditions. The following devices were used in the experiments: Analgesy Meter (37215, Ugo Basile), Plantar Test Apparatus (EFV5, Commat Ltd., Turkey), Plethysmometer (Plethysmometer 7140, Ugo Basile), Electronic von Frey unit (BIOSEB, France). All procedures were performed according to the European Union Directive of 22 September 2010 (2010/63/EU) and approved by the Local Ethics Committee for Experiments on Animals in Krakow, Poland (resolution no. 105/2016).
(§4) Figure 8 Effect of compound 14 on carrageenan-induced oedema (A), mechanical hyperalgesia (B), and thermal hyperalgesia (C), developed after subplantar injection of 1% carrageenan in rats. Data are expressed as means ± S.E.M. for 6 animals; 0—the initial value considered as the paw volume (A) or nociceptive reaction (B,C) before carrageenan administration. Statistical significance compared to vehicle-treated animals (control): * p < 0.05, ** p < 0.01, *** p < 0.001, **** p < 0.0001. Statistical analysis: two-way ANOVA post hoc Bonferroni test. Statistical significance in different time points of control group: ^# p < 0.05, ^## p < 0.01, ^### p < 0.001. Statistical analysis: one-way ANOVA, followed by Dunnett’s multiple comparison test (GraphPad Prism 8.0.1).

[7] = molecular target: T1, CYP3A4 (Homo sapiens, UniProt P08684); experiment: CYP3A4 P450-Glo luminescent assay; assay type: in vitro ADME
T1 construct: purchased Promega (Madison, WI, USA)
T1 sequence (P08684 whole entry): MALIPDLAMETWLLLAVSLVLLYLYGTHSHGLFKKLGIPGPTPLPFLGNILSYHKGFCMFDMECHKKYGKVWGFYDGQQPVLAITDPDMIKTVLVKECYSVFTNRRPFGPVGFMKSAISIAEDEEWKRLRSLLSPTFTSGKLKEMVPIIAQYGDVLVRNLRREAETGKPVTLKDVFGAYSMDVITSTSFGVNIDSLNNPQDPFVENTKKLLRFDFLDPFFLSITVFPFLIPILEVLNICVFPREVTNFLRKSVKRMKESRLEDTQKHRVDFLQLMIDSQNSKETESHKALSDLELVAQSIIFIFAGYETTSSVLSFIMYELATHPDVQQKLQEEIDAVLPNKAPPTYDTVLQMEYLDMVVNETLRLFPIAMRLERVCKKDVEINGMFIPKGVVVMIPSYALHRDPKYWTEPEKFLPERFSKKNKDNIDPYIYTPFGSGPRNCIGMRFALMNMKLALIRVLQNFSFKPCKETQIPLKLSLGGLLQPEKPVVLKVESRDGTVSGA

[8] = test system: rats; experiment: Carrageenan-induced thermal hyperalgesia (radiant heat); assay type: in vivo, rat; conditions: 80 mg/kg
Excerpt: as §2, §3, §4

[9] = test system: rats; experiment: Carrageenan-induced mechanical hyperalgesia; assay type: in vivo, rat; conditions: 80 mg/kg
Excerpt: as §2, §1
Figure 8 Effect of compound 14 on carrageenan-induced oedema (A), mechanical hyperalgesia (B), and thermal hyperalgesia (C), developed after subplantar injection of 1% carrageenan in rats. Data are expressed as means ± S.E.M. for 6 animals; 0—the initial value considered as the paw volume (A) or nociceptive reaction (B,C) before carrageenan administration. […]

## CN(C)C1CC(=O)N(C(C(=O)N2CCN(c3cccc(C(F)(F)F)c3)CC2)c2ccccc2)C1=O.Cl (stereo not shown) [Compound 14, 3-(Dimethylamino)-1-(2-oxo-1-phenyl-2-(4-(3-(trifluoromethyl)phenyl)-piperazin-1-yl)ethyl)pyrrolidine-2,5-dione hydrochloride]
[1]; Mus musculus, ip, 95% confidence interval in parentheses
  ED50: 49.6 mg/kg
[1]; 100 mg/kg, 0.5 h
  MES screening: number of mice protected / number of mice tested: 4/4
  protection in the MES test: 100%
[2]
  ED50: 63.2 mg/kg
[3]
  inhibition at 10 µM: 29%
[4]
  ED50: 54.1 mg/kg
[5]
  effect on body (rectal) temperature: did not produce statistically significant changes
[6]; 1 h after carrageenan
  reduction of paw edema: 36.8%
[6]; 2 h after carrageenan
  reduction of paw edema: 55.8%
[6]; 3 h after carrageenan
  reduction of paw edema: 62.9%
[6]; 6 h after carrageenan
  reduction of paw edema: 68.6%
[6]; 24 h after carrageenan
  reduction of paw edema: 74.3%
[7]; 10 µM
  CYP3A4 activity in the presence of the compound: higher than 50%
[7]; significant inhibition only at 10 µM and 25 µM (p < 0.0001)
  CYP3A4 inhibition, classification: moderate inhibitor
[8]; 1 h after carrageenan
  latency of nociceptive response to radiant heat, % of the initial value: 127.0%
[8]; 2 h after carrageenan
  latency of nociceptive response to radiant heat, % of the initial value: 102.0%
[8]; 3 h after carrageenan
  latency of nociceptive response to radiant heat, % of the initial value: 79.8%
[8]; 6 h after carrageenan
  latency of nociceptive response to radiant heat, % of the initial value: 83.8%
[8]; 24 h after carrageenan
  latency of nociceptive response to radiant heat, % of the initial value: 164.4%
[9]; 3 h after carrageenan
  withdrawal threshold, % of the initial reaction (mechanical hyperalgesia): 113.3%
[9]; 6 h after carrageenan
  withdrawal threshold, % of the initial reaction (mechanical hyperalgesia): 110.1%
[9]; 24 h after carrageenan
  withdrawal threshold, % of the initial reaction (mechanical hyperalgesia): 111.4%
